Among the data in US6586435B2, “Benzimidazolone derivatives displaying affinity at the serotonin and dopamine receptors” (Boehringer Ingelheim Pharma KG, priority 2000, dated 2003) are inhibition and IC50 values, retold here.

pIC50: −log10 of the molar value. Like-named read-outs stand apart in the source and are kept apart here.

The target in test [1] is T1, 5-HT1A receptor (CHO/5-HT1A cells) (Homo sapiens, UniProt P08908).
T1 construct: expressed in transfected cells; host or cells: CHO/5-HT1A cells
T1 sequence (P08908 1-422): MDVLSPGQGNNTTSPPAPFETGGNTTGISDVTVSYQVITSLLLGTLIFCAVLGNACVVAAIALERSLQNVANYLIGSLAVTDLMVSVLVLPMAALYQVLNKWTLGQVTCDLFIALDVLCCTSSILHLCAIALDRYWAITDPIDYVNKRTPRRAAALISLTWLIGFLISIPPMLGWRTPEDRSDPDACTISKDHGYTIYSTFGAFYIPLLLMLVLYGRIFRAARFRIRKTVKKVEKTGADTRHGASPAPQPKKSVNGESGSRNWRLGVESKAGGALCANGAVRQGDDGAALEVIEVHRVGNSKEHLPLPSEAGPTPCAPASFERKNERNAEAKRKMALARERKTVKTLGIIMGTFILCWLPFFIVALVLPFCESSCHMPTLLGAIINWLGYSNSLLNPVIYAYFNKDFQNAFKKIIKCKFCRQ
Description: 5-HT1A functional assay (cAMP). Type of test: cell-based. Particulars: 10 μM compound, % inhibition of the cAMP accumulation induced by 10 μM FSK, read-out: 5-HT1A cAMP % Inhibition (agonist activity). As for the experimental part:
5-HT1A Functional Assay (cAMP)
CHO/5-HT1A cells were random seeded at a density of about 200,000/well in 24 well plates the day prior to the experiment. On the day of the experiment, cells were pretreated for 15 minutes at 37° C. with 500 μM isobutylmethylxantine (IBMX) dissolved in culture medium without serum. Wells were then divided in different groups in duplicate as follows: control, 10 μM FSK, 10 μM FSK+1 μM 5-HT as positive standard and 10 μM FSK+10 μM of the different compound under evaluation. Sample solutions were added and incubated for additional 15 minutes at 37° C. After incubation, medium was aspirated and the reaction stopped by adding 200 μl of lysis buffer. Plates were shaken for 5 minutes, then the lysate was removed and samples were stored at 4° C. until the day of the assay. For the cAMP evaluation, samples were properly diluted and the cAMP content was measured by an enzyme immunoassay system.
Results are expressed as % inhibition of the cAMP accumulation induced by 10 μM FSK.
(Cyclic AMP is a second messenger, typically raised through Gs and lowered through Gi signalling.)

The next test has as its target T2, D4 human receptors (Homo sapiens, UniProt P21917).
T2 construct: expressed in transfected cells; host or cells: CHO cells
T2 sequence (P21917 1-419): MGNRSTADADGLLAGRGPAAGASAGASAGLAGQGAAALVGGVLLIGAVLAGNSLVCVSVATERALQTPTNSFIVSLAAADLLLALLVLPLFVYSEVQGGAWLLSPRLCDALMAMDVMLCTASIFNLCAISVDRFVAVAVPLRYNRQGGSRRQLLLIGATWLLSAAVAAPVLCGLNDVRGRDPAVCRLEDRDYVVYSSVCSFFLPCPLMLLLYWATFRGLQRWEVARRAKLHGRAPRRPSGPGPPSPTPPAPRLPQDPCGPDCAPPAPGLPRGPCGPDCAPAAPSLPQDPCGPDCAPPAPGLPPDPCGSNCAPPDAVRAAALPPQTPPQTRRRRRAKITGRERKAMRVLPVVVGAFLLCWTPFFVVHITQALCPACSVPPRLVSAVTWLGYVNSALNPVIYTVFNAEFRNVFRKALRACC
Description: D4 radioligand receptor binding assay ([3H] YM-09151-2). Particulars: compound 10^−7 M, singlicate; membranes from CHO cells; [3H] YM-09151-2 0.15-0.25 nM. As for the experimental part: D4 Radioligand Receptor Binding Assay
Membranes from CHO cells, expressing D4 human receptors were suspended in incubation buffer.
Binding assays were performed in MultiProbe 204 pipetting system (Packard), according to a predetermined mapping, consistent with the software Screen. The compounds were tested in singlicate at one concentration (10^−7 M) in a total volume of 1000 μl (980 μl of diluted membranes, 10 μl DMSO or unlabelled ligand, and 10 μl of [^3H] YM-09151-2 (0.15-0.25 nM). After incubation for 120 minutes at 27° C., the reaction was stopped by rapid filtration through Tomtec Cell Harvester (48 wells) using Filtermat B (presoaked in 0.1% PEI) filters. Filters were washed with ice-cold 50 mM Tris-HCl (pH 7.4) buffer (9×700 μl), dried, covered with MeltiLex B/HS (Wallac) scintillator sheets and heated in oven at 80° C.-90° C. for about 10 minutes, transferred into plastic sample bags (Wallac), sealed and put into 1024 Beta Plate scintillation counter (Wallac). Non-specific binding was determined in the presence of clozapine dissolved in DMSO to a final concentration of 10^−5 M.
The specific radioligand binding to the receptor was defined by the difference between total binding and non-specific binding, determined in the presence of an excess of unlabelled ligand. Results were expressed as percentage of control specific binding obtained in the presence of the compounds.

Another test deals with T3, 5-HT1A human receptors (Homo sapiens, UniProt P08908).
T3 construct: expressed in transfected cells; host or cells: CHO cells
T3 sequence (P08908 1-422): T1 sequence (P08908 1-422)
Description: 5-HT1A radioligand receptor binding assay ([3H]-8-OH-DPAT). Particulars: for inhibition at 0.1 µM: compound 10^−7 M, singlicate, [3H]-8-OH-DPAT 0.6-0.7 nM. As for the experimental part: 5-HT1A, Radioligand Receptor Binding Assay
Membranes from CHO cells, expressing 5-HT1A human receptors were suspended in incubation buffer.
Binding assays were performed in MultiProbe 204 pipetting system (Packard), according to a predetermined mapping, consistent with the software Screen. The compounds were tested in singlicate at one concentration (10^−7 M) in a total volume of 1000 μl. 980 μl of diluted membranes, 10 μl DMSO or unlabelled ligand, and 10 μl of [^3H]-8-OH-DPAT (0.6-0.7 nM) were incubated for 60 minutes at 27° C. The reaction was stopped by rapid filtration through Tomtec Cell Harvester (48 wells) using Filtermat B (presoaked in 0.1% PEI) filters. Filters were washed with ice-cold 50 mM Tris-HCl (pH 7.4) buffer (9×700 μl), dried, covered with MeltiLex B/HS scintillator sheets (Wallac) and heated at 80° C. to 90° C. for about 10 minutes, transferred into plastic sample bags (Wallac), sealed and put into 1024 Beta Plate scintillation counter (Wallac). Non-specific binding was determined in the presence of 5-HT (10^−5 M).
The specific radioligand binding to the receptor was defined by the difference between total binding and non-specific binding, determined in the presence of an excess of unlabelled ligand. Results were expressed as percentage of control specific binding obtained in the presence of the compounds. The affinity values (IC50) for the compounds were obtained by a nonlinear least squares regression analysis on the basis of a one binding site model.

Setting [2] is: membranes from CHO cells, [3H]-8-OH-DPAT, one binding site model, read-out: 5-HT1A Receptor Binding IC50.

Turning to `Cn1c(=O)n(C/C=C\CN2CC=C(c3ccccc3)CC2)c2ccccc21` [Compound 44], the inhibition (usually how much of the control response was suppressed) at 10 µM in test [1] is 47%. Besides, the inhibition at 0.1 µM at D4 human receptors was 69%; at 5-HT1A human receptors (membranes from CHO cells), 94%. Besides, at 5-HT1A human receptors, the pIC50 – broadly, the IC50 on a negative log10 scale, so that one unit is a factor of ten – was 8.60.
For the molecule `Cn1c(=O)n(C/C=C\CN2CCN(c3ccccc3)CC2)c2ccccc21` [Compound 35], the inhibition at 10 µM in test [1] stood at 66%. Also, the inhibition at 0.1 µM came out at 59% on D4 human receptors and 88% on 5-HT1A human receptors (membranes from CHO cells). Also, on 5-HT1A human receptors (setting [2]), the pIC50 was 7.82.
For `Cn1c(=O)n(C/C=C/CN2CCc3c([nH]c4ccccc34)C2)c2ccccc21` [Compound 92] the same measures were 46%, 54%, 88% and 7.82.
The matching figures for `Cn1c(=O)n(C/C=C\CN2CCN(c3cccc(C(F)(F)F)c3)CC2)c2ccccc21` [Compound 43]: 73%, 54%, 94% and 8.92.
The matching figures for `O=c1n(C/C=C/CN2CCN(c3ncccn3)CC2)c2ccccc2n1CC1CCCCC1` [Compound 125]: 49%, 51%, 90% and 8.48.
As to `O=c1n(C/C=C\CN2CC=C(c3ccccc3)CC2)c2ccccc2n1CC1CCCCC1` [Compound 78], the inhibition at 10 µM in test [1] was determined as 27%. For the same molecule, the figures for the inhibition at 0.1 µM on D4 human receptors and on 5-HT1A human receptors (membranes from CHO cells) were 40% and 86%, respectively. The same molecule showed a pIC50 on 5-HT1A human receptors of 7.74.
